Measured values reported in patent publication US12077551B2, “Zinc complex, preparation thereof and use thereof for trerapy of human and animal diseases” (OBSCHESTVO S OGRANICHENNOI OTVETSTVENNOSTIYU “Z …, priority 2018, dated 2024).

Experiments:
[1] = target: recombinant intracellular human glutaminyl cyclase (Homo sapiens, UniProt Q9NXS2); assay: Enzymatic activity of human glutaminyl cyclase in vitro (fluorescent substrate Gln-bNA); assay type: biochemical; conditions: 25° C., 50 μM Gln-bNA, pH 8.0, enzyme incubated with compound for 5 minutes; read-out: IC50, inhibition of glutaminyl cyclase activity
Description: In the studies of the effect of Compound 1 (which is the subject of the present invention) on the enzymatic activity of glutaminyl cyclase in vitro, the direct inhibitory effect of Compound 1 on recombinant intracellular human glutaminyl cyclase was discovered.
The activity of glutaminyl cyclase at various Compound 1 concentrations was studied at 25° C. using the fluorescent substrate L-glutaminyl 2-naphthylamide (Gln-bNA) [Anal Biochem. 2002 Apr. 1; 303 (1): 49-56]. The reaction mixture with a volume of 100 μl contained 50 μM of a fluorogenic substrate; ˜0.2 units of human pyroglutaminyl aminopeptidase (1 unit is defined as the amount that hydrolyzes 1 micromole of pGlu-bNA per minute), and an aliquot of recombinant intracellular human glutaminyl cyclase (gQC) in […] trisaminomethane HCl and 5% glycerol, pH 8.0. The reaction was initiated by adding an aliquot of glutaminyl cyclase incubated with Compound 1 for 5 minutes to the reaction mixture.
Further progression of the reaction was monitored spectrophotometrically (excitation and emission wavelengths were 320 and 410 nm). Enzymatic activity was determined by the amount of released 2-naphthylamide (bNA), calculated based on the calibration curve. IC50 values were calculated using non-linear regression of the “inhibitor concentration”-“enzyme activity” curve.

[2] = test system: mouse atopic dermatitis model; assay: Mouse atopic dermatitis model (DNCB), histological analysis of the affected ear; assay type: in vivo, male mice of the balb/c strain
Description: Experimental technique. The study of Compound 1 activity in the model of atopic dermatitis was carried out using the standard technique [Evidence-based Complementary and Alternative Medicine. 2012. Article ID 545497, 9 pages). For the experimental group, we selected animals of average appearance without signs of deviations, with the weight of the animal being no more than ±20% from the average value within the sex. On days 0 and 12 of the experiment, male mice of the balb/c strain were treated with 100 μl of a 2% solution of 1-chloro-2,4-dinitrobenzene (DNCB) in ethanol applied to the previously shaved areas on the back to sensitize the body. On the 17th day, 20 μl of 2% alcohol solution of DNCB was applied to the “test” right ear of the animals twice with an interval of 1 hour. Compound 1 cream with an active substance content of 0.01 wt % was administered topically, to the “test” right ear, twice: 1 and 13 hours after the last application of DNCB to the ear. The following were used as a comparison/reference/control medications: Methylprednisolone aceponate ([…] ointment for external use), pyrithione zinc (0.2% cream for external use), pimecrolimus (1% cream for external use) and cream for external use containing gamma-L-glutamylhistamine 0.01%. On the 18th day, the animals were euthanized and the histological analysis of the affected ear was performed. Histological sections with a thickness of 5 μm were stained with hematoxylin-eosin. […] The data obtained were verified using the Grubbs test, also known as the maximum normalized residual test a test used to detect outliers in a data set. The values identified as “outliers” in this test were not used for further analysis. Descriptive statistics were used for all data: the mean (M) and standard error of the mean (m) were calculated. The normal distribution of the values obtained in the experiment was verified using the Kolmogorov-Smirnov test. In the case of a normal distribution, Student's t-test was used to assess intergroup differences. […] Differences were determined at a 5% confidence level.

[3] = Solubility and dissociation of the product (NMR solvents, D2O spectrum); assay type: physicochemical
Source text: The prepared resulting product is insoluble in solvents which are used to record NMR spectra.
It mainly contains the residual signal of the non-deuterated solvent, and low-intensity signals corresponding to the original gamma-L-glutamylhistamine.

Chain of recombinant intracellular human glutaminyl cyclase (Q9NXS2 whole entry): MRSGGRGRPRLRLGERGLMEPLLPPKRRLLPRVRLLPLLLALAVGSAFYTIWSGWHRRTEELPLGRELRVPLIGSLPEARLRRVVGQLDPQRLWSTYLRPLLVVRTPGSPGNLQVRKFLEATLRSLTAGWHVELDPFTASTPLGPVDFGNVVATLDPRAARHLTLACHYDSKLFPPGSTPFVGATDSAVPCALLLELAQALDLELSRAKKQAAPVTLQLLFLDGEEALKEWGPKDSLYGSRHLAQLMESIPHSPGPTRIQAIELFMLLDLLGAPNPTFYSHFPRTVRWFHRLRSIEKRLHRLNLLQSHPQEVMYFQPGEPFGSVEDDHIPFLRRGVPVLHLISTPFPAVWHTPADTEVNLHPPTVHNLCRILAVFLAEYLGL

zinc complex of gamma-L-glutamylhistamine [Compound 1]
IC50 [1]: 26 µM | action in comparison with the gamma-L-glutamylhistamine ligand ([2]; 0.01 wt % cream vs cream containing gamma-L-glutamylhistamine 0.01%): significant improvement | effectiveness in comparison with the reference drugs methylprednisolone aceponate, zinc pyrithione and pimecrolimus ([2]; 0.01 wt % cream vs reference ointment/creams): superior performance | influx of inflammatory cells (monocytes, dendritic cells, eosinophils and neutrophils) into the epidermis and dermis of the skin ([2]; 0.01 wt % cream, topical to right ear, 1 and 13 hours after last DNCB application, histology on day 18): to the level of intact animals | solubility in solvents used to record NMR spectra ([3]; product of Example 2): insoluble | dissociation in aqueous suspensions ([3]; product of Example 2, D2O NMR spectrum): insignificant dissociation
